Measurements: patent publication US4623662A, “Antiatherosclerotic ureas and thioureas” (American Cyanamid Company, priority 1985, dated 1986)
Where two headings read alike, the source gives them in different places.

What was measured:
[1] = molecular target: T1, fatty acyl CoA: cholesterol acyl transferase (ACAT) (Rattus norvegicus, UniProt O70536); assay: Inhibition of fatty acyl CoA:cholesterol acyl transferase (ACAT), rat adrenal enzyme; format: biochemical
T1 construct: The supernatant, containing the microsomal fraction, served as the source of the cholesterol-esterifying enzyme; from tissue; host or cells: rat adrenals, supernatant of 1,000 x g centrifugation containing the microsomal fraction
T1 sequence (O70536 1-545): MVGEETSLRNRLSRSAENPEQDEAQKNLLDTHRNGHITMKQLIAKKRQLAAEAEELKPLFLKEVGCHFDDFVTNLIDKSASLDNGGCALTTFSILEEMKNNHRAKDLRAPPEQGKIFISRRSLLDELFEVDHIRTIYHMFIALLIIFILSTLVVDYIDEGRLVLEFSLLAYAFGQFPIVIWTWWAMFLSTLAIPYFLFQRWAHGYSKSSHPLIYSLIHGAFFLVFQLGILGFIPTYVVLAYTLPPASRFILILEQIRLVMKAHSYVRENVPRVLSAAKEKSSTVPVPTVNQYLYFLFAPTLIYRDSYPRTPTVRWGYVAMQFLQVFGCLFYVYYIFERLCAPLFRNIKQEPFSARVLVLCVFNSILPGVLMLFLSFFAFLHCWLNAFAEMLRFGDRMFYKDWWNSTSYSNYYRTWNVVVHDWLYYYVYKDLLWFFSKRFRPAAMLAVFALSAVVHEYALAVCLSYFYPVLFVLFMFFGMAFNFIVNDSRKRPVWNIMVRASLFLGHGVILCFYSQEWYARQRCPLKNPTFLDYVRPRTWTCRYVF
Experimental: The compounds of the present invention were assayed for two types of biological activity related to their potential use as antiatherosclerotic agents. Compounds were tested in vitro for the ability to inhibit the enzyme fatty acyl CoA: cholesterol acyl transferase (ACAT) and in vivo for serum hypolipidemic activity as meausred by the ability to inhibit lipid absorption in rats.
The compounds were tested for their ability to inhibit ACAT according to the following procedure: rat adrenals were homogenized in 0.2M monobasic potassium phosphate buffer, pH 7.4, and centrifuged at 1,000 times gravity for 15 minutes at 5° C. The supernatant, containing the microsomal fraction, served as the source of the cholesterol-esterifying enzyme, fatty acyl CoA:cholesterol acyl transferase (ACAT). A mixture comprising 50 parts of adrenal supernatant, 10 parts of bovine serum albumin (50 mg/ml), 3 parts of test compound (final concentration 5.2 μg/ml), and 500 parts of buffer was preincubated at 37° C. for 10 minutes. After treatment with 20 parts of oleoyl CoA (^14 C-0.4 μCi), the mixture was incubated at 37° C. for 10 minutes. A control mixture, omitting the test compound, was prepared and treated in the same manner. The lipids from the incubation mixture was extracted into an organic solvent and separated by thin-layer chromatography. The cholesteryl ester fraction was counted in a scintillation counter. This procedure is a modification of that described by Hashimoto, et al., Life Scie., 12 (Part II), 1-12 (1973).
Compounds which produced statistically significant inhibition of the ACAT enzyme are considered to be active.
In addition to the above described test and the results given in terms of percent inhibition, various compounds of this invention were tested by the same procedure at several concentrations. The results of this test are given in Table II in terms of IC50 (μM), that concentration which produced 50% inhibition of the ACAT enzyme.

cholesterol absorption = assay: Inhibition of cholesterol absorption in rats fed 1% cholesterol:0.5% cholic acid diet; format: in vivo, male Sprague-Dawley rats; conditions: po, 336 h, rat, 2 weeks; for response vs control in vivo at 0.001 %: dose .001% of the diet; for response vs control in vivo at 0.003 %: dose .003% of the diet; for response vs control in vivo at 0.01 %: dose .01% of the diet; for response vs control in vivo at 0.03 %: dose .03% of the diet
Experimental: Inhibition of cholesterol absorption was determined by feeding male Sprague-Dawley rats, weighing 150-170 g, a 1% cholesterol:0.5% cholic acid diet for 2 weeks. The diet also contained compounds being tested at a dose of 0.001, 0.003, 0.01, or 0.03% of the diet. Control rats were fed the same diet without any compound. At the end of the test, the rats were sacrificed by decapitation. Blood was collected, centrifuged at […] for 10 minutes at 4° C.; and the serum was then analyzed for cholesterol and triglycerides enzymatically by the method of Trinder, P., Analyst, 77, 321 (1952) on a Centrifichem 400 analyzer. Livers were removed, a 0.4 g sample was taken from the center of the large lobe, and the sample was subjected to saponification using 25% saturated potassium hydroxide in ethanol. The resulting neutral sterols were extracted with petroleum ether and the extract analyzed for cholesterol. The effectiveness of the compound in inhibiting cholesterol absorption was measured by the lowering of either serum cholesterol or liver cholesterol relative the values for control rats.
Compounds which produced statistically significant inhibition of cholesterol absorption are considered to be active. Liver sterol (LS) and serum sterol (SS) values are expressed as a percentage of control values.

[2] = rat adrenal ACAT, final concentration 5.2 μg/ml, read-out: % Inhibition
[3] = read-out: LS (liver sterol), percentage of control values
[4] = read-out: SS (serum sterol), percentage of control values

1-[(4-Butylphenyl)methyl]-1-[6-[(methylsulfonyl)oxy]-hexyl]-3-[(2,4,5-trimethylphenyl)methyl]urea
% Inhibition ([1]; rat adrenal ACAT, final concentration 5.2 μg/ml): 90.0%

CC(C)(C)CCN(Cc1ccc(Cl)cc1)C(=O)Nc1ccc(F)cc1F [1-(3,3-Dimethylbutyl)-1-(4-chlorobenzyl)-3-(2,4-difluorophenyl)urea]
inhibition at 5.2 µg/mL [1]: 90%

CC(C)(C)CCN(Cc1ccc(Cl)cc1)C(=O)Nc1cccc(C(F)(F)F)c1 [1-(3,3-Dimethylbutyl)-1-(4-chlorobenzyl)-3-(3-trifluoromethylphenyl)urea]
inhibition at 5.2 µg/mL [1]: 90%

CCCCc1ccc(CN(CCC(C)(C)C)C(=O)Nc2cccc(C(F)(F)F)c2)cc1 [1-(3,3-Dimethylbutyl)-1-[4-(n-butyl)benzyl]-3-(3-trifluoromethylphenyl)urea]
inhibition at 5.2 µg/mL [1]: 90%

Cc1ccc(CCN(Cc2ccc3c(c2)OCO3)C(=O)Nc2ccc(C)cc2C)cc1 [1-(3,4-Methylenedioxybenzyl)-1-[2-(4-methylphenyl)ethyl]-3-(2,4-dimethylphenyl)urea]
inhibition at 5.2 µg/mL [1, 2]: 41.2%

Cc1ccc(NC(=O)N(CCC(c2ccccc2)c2ccccc2)c2ccc3c(c2)OCO3)c(C)c1 [1-(3,4-Methylenedioxyphenyl)-1-(3,3-diphenylpropyl)-3-(2,4-dimethylphenyl)urea]
inhibition at 5.2 µg/mL [1, 2]: 87.8%

CCCCN(Cc1ccc(Br)cc1)C(=O)Nc1ccc(C)cc1C [1-(4-Bromobenzyl)-1-(n-butyl)-3-(2,4-dimethylphenyl)urea]
inhibition at 5.2 µg/mL [1, 2]: 81%

O=C(Nc1ccc(Cl)cc1C(F)(F)F)N(Cc1ccc(Cl)cc1)Cc1cccc2ccccc12 [1-(4-Chlorobenzyl)-1-(1-naphthylmethyl)-3-(2-trifluoromethyl-4-chlorophenyl)urea]
inhibition at 5.2 µg/mL [1, 2]: 83%

CCCCCOc1ccc(CN(Cc2ccc(CCCCC)cc2)C(=O)Nc2ccc(Cl)cc2C)cc1 [1-(4-n-Pentylbenzyl)-1-(4-n-pentyloxybenzyl)-3-(2-methyl-4-chlorophenyl)urea]
inhibition at 5.2 µg/mL [1, 2]: 91%

CCCCCCCN(Cc1ccc(CCC(C)CC)cc1)C(=O)Nc1ccc(F)cc1F (stereo not shown) [1-(n-Heptyl)-1-[4-(3-methylpentyl)benzyl]-3-(2,4-difluorophenyl)urea]
response vs control in vivo at 0.001 % (cholesterol absorption; [3]): 89% | response vs control in vivo at 0.001 % (cholesterol absorption; [4]): 72%

CCCCCCCN(Cc1ccc(CCC(C)CC)cc1)C(=O)Nc1c(C)cc(Cl)cc1C (stereo not shown) [1-(n-Heptyl)-1-[4-(3-methylpentyl)benzyl]-3-(4-chloro-2,6-dimethylphenyl)urea]
response vs control in vivo at 0.003 % (cholesterol absorption; [3]): 45% | response vs control in vivo at 0.003 % (cholesterol absorption; [4]): 38%

CCCCCCCN(Cc1ccc(CCCCSCC)cc1)C(=O)Nc1c(C)cc(Cl)cc1C [1-(n-Heptyl)-1-[4-(4-ethylthiobutyl)benzyl]-3-(4-chloro-2,6-dimethylphenyl)urea]
response vs control in vivo at 0.003 % (cholesterol absorption; [3]): 63% | response vs control in vivo at 0.003 % (cholesterol absorption; [4]): 57%

CCCCCCCN(Cc1ccc(CCCCSC(C)C)cc1)C(=O)Nc1c(C)cc(Cl)cc1C [1-(n-Heptyl)-1-[4-(4-isopropylthiobutyl)benzyl]-3-(4-chloro-2,6-dimethylphenyl)urea]
response vs control in vivo at 0.01 % (cholesterol absorption; [3]): 45% | response vs control in vivo at 0.01 % (cholesterol absorption; [4]): 49%

CCCCCCCN(Cc1ccc(CC2CCC2)cc1)C(=O)Nc1c(F)cc(F)cc1F [1-(n-Heptyl)-1-[4-(cyclobutylmethyl)benzyl]-3-(2,4,6-trifluorophenyl)urea]
response vs control in vivo at 0.001 % (cholesterol absorption; [3]): 66% | response vs control in vivo at 0.001 % (cholesterol absorption; [4]): 62%

CCCCCCCN(Cc1ccc(CC2CCC2)cc1)C(=O)Nc1c(C)cc(Cl)cc1C [1-(n-Heptyl)-1-[4-(cyclobutylmethyl)benzyl]-3-(4-chloro-2,6-dimethylphenyl)urea]
response vs control in vivo at 0.001 % (cholesterol absorption; [3]): 69% | response vs control in vivo at 0.001 % (cholesterol absorption; [4]): 64%

CCCCCCCN(Cc1ccc(C2CCCC2)cc1)C(=O)Nc1c(F)cc(F)cc1F [1-(n-Heptyl)-1-[4-(cyclopentyl)benzyl]-3-(2,4,6-trifluorophenyl)urea]
response vs control in vivo at 0.001 % (cholesterol absorption; [3]): 58% | response vs control in vivo at 0.001 % (cholesterol absorption; [4]): 69%

CCCCCCCN(Cc1ccc(C2CCCC2)cc1)C(=O)Nc1ccc(F)cc1F [1-(n-Heptyl)-1-[4-(cyclopentyl)benzyl]-3-(2,4-difluorophenyl)urea]
response vs control in vivo at 0.003 % (cholesterol absorption; [3]): 82% | response vs control in vivo at 0.003 % (cholesterol absorption; [4]): 80%

CCCCCCCN(Cc1ccc(C2CCCC2)cc1)C(=O)Nc1c(Cl)cc(Cl)cc1Cl [1-(n-Heptyl)-1-[4-(cyclopentyl)benzyl]-3-(4-chloro-2,6-dichlorophenyl)urea]
response vs control in vivo at 0.003 % (cholesterol absorption; [3]): 36% | response vs control in vivo at 0.003 % (cholesterol absorption; [4]): 35%

CCCCCCCN(Cc1ccc(CC2CCCC2)cc1)C(=O)Nc1c(F)cc(F)cc1F [1-(n-Heptyl)-1-[4-(cyclopentylmethyl)benzyl]-3-(2,4,6-trifluorophenyl)urea]
response vs control in vivo at 0.003 % (cholesterol absorption; [3]): 50% | response vs control in vivo at 0.003 % (cholesterol absorption; [4]): 62%

CCCCCCCN(Cc1ccc(CC2CCCC2)cc1)C(=O)Nc1c(C)cc(Cl)cc1C [1-(n-Heptyl)-1-[4-(cyclopentylmethyl)benzyl]-3-(4-chloro-2,6-dimethylphenyl)urea]
response vs control in vivo at 0.003 % (cholesterol absorption; [3]): 53% | response vs control in vivo at 0.003 % (cholesterol absorption; [4]): 45%

CCCCCCCN(Cc1ccc(CCCC(C)C)cc1)C(=O)Nc1c(F)cc(F)cc1F [1-(n-Heptyl)-1-[4-(isohexyl)benzyl]-3-(2,4,6-trifluorophenyl)urea]
response vs control in vivo at 0.001 % (cholesterol absorption; [3]): 78% | response vs control in vivo at 0.001 % (cholesterol absorption; [4]): 77%

CCCCCCCN(Cc1ccc(CCCC(C)C)cc1)C(=O)Nc1ccc(F)cc1F [1-(n-Heptyl)-1-[4-(isohexyl)benzyl]-3-(2,4-difluorophenyl)urea]
response vs control in vivo at 0.003 % (cholesterol absorption; [3]): 53% | response vs control in vivo at 0.003 % (cholesterol absorption; [4]): 45%

CCCCCCCN(Cc1ccc(CCCC(C)C)cc1)C(=O)Nc1c(C)cc(Cl)cc1C [1-(n-Heptyl)-1-[4-(isohexyl)benzyl]-3-(4-chloro-2,6-dimethylphenyl)urea]
response vs control in vivo at 0.001 % (cholesterol absorption; [3]): 73% | response vs control in vivo at 0.001 % (cholesterol absorption; [4]): 64%

CCCCCCCN(Cc1ccc(OCCC(C)C)cc1)C(=O)Nc1ccc(F)cc1F [1-(n-Heptyl)-1-[4-(isopentyloxy)benzyl]-3-(2,4-difluorophenyl)urea]
response vs control in vivo at 0.001 % (cholesterol absorption; [3]): 61% | response vs control in vivo at 0.001 % (cholesterol absorption; [4]): 69%

CCCCCCCN(Cc1ccc(OCCC(C)C)cc1)C(=O)Nc1c(C)cc(Cl)cc1C [1-(n-Heptyl)-1-[4-(isopentyloxy)benzyl]-3-(4-chloro-2,6-dimethylphenyl)urea]
response vs control in vivo at 0.001 % (cholesterol absorption; [3]): 23% | response vs control in vivo at 0.001 % (cholesterol absorption; [4]): 25%

CCCCCCCN(Cc1ccc(CCCC)cc1)C(=O)Nc1ccc(C(F)(F)F)cc1 [1-(n-Heptyl)-1-[4-(n-butyl)benzyl]-3-(4-trifluoromethylphenyl)urea]
response vs control in vivo at 0.03 % (cholesterol absorption; [3]): 88% | response vs control in vivo at 0.03 % (cholesterol absorption; [4]): 79%
